ChEMBL document CHEMBL5537109, “Natural products as potential lead compounds to develop new antiviral drugs over the past decade” (Eur J Med Chem, 2023)
≈ marks a conversion by molar mass, not a printed value. Numbered stars: 1 amine (or outer) side, 2 acyl side, 3 side chain; on linkers, the order of the positions; unused ones are H or OH. Square brackets hold non-standard residues; d marks the D form. Peptide text beside a SMILES is read from it. dAla(ψthiazole) = C[C@@H](N[*:1])c1nc(C(=O)[*:2])cs1; Trp(4-OMe) = COc1cccc2[nH]cc(C[C@H](N)C(=O)O)c12; X1 = CC(=O)[C@](C)(N[*:1])C(=O)[*:2]; dNMeY = CN[C@H](Cc1ccc(O)cc1)C(=O)O; Dhb = C/C=C(\N)C(=O)O; Sar = CNCC(=O)O

Legend:
[1] = Cytotoxicity against African green monkey Vero cells assessed as reduction in cell viability measured after 72 hrs by MTT assay; assay type: toxicity, cell-based; conditions: chlorocebus sabaeus
Human alphaherpesvirus 3 = test: Antiviral activity against VZV infected HFF cells assessed as reduction in viral replication; assay type: functional, organism-based; conditions: Human alphaherpesvirus 3, HFF
Human alphaherpesvirus 1 [2] = test: Antiviral activity against HSV-1 infected in African green monkey Vero cells by plaque reduction assay; assay type: functional, organism-based; conditions: Human alphaherpesvirus 1, Vero
Human alphaherpesvirus 2 = test: Antiviral activity against HSV-2 186 infected in African green monkey Vero cells assessed as reduction in virus induced cytopathogenicity by plaque reduction assay; assay type: functional, organism-based; conditions: Human alphaherpesvirus 2, Vero
[3] = tested on: Human immunodeficiency virus 2; test: Antiviral activity against HIV-2 ROD infected in human MT4 cells assessed as protection against virus induced cytopathic effect and measured after 5 days by MTT spectrophotometric assay; assay type: functional, organism-based; conditions: Human immunodeficiency virus 2, ROD, MT4, 120 h
[4] = tested on: Human immunodeficiency virus 1; test: Antiviral activity against HIV1 A17 infected in human C8166 cells assessed as protection against virus-induced cytopathic effect incubated for 5 days by MTT assay; assay type: functional, organism-based; conditions: Human immunodeficiency virus 1, A17, C8166, 120 h
[5] = tested on: Human immunodeficiency virus 1; test: Antiviral activity against wild type HIV-1 IIIB infected in human MT4 cells assessed as protection against virus-induced cytopathic effect incubated for 5 days by MTT assay; assay type: functional, organism-based; conditions: Human immunodeficiency virus 1, IIIB, MT4, 120 h
[6] = tested on: Human immunodeficiency virus 2; test: Antiviral activity against wild type HIV-2 CBL-20 infected in human MT4 cells assessed as protection against virus-induced cytopathic effect incubated for 5 days by MTT assay; assay type: functional, organism-based; conditions: Human immunodeficiency virus 2, CBL-20, MT4, 120 h
[7] = tested on: Human immunodeficiency virus 1; test: Antiviral activity against HIV1 9495 infected in human C8166 cells assessed as protection against virus-induced cytopathic effect incubated for 5 days by MTT assay; assay type: functional, organism-based; conditions: Human immunodeficiency virus 1, 9495, C8166, 120 h
[8] = Cytotoxicity against human MT4 cells assessed as reduction in cell viability incubated for 5 days by MTT assay; assay type: toxicity, cell-based; conditions: time 5 day
[9] = tested on: Human immunodeficiency virus 2; test: Antiviral activity against HIV-2 ROD infected in C8166 cells assessed as reduction in viral replication measured after 3 days by ELISA; assay type: functional, organism-based; conditions: Human immunodeficiency virus 2, ROD, C8166, 72 h
Human alphaherpesvirus 1 [10] = test: Antiviral activity against HSV-1 at 25 uM relative to control; assay type: functional
[11] = biological target: Human immunodeficiency virus type 1 reverse transcriptase (Human immunodeficiency virus 1, UniProt Q72547); test: Inhibition of HIV-1 NL4-3 reverse transcriptase by RT-PCR analysis
A549 = test: Cytotoxicity against human A549 cells assessed as reduction in cell growth incubated for 5 days by MTS assay; assay type: functional; conditions: A549, 120 h, time 5 day
[12] = tested on: Human immunodeficiency virus 1; test: Antiviral activity against HIV-1 infected in human MT4 cells assessed as reduction in viral replication; assay type: functional; conditions: Human immunodeficiency virus 1, MT4
[13] = biological target: Human immunodeficiency virus type 1 protease (Human immunodeficiency virus 1, UniProt Q72874); test: Inhibition of HIV-1 protease
[14] = tested on: Human immunodeficiency virus 1; test: Antiviral activity against HIV1 infected in C8166 cells assessed as reduction in viral replication measured after 3 days by ELISA; assay type: functional, organism-based
[15] = Cytotoxicity against human C8166 cells assessed as reduction in cell growth by MTT assay; assay type: toxicity, cell-based
Human alphaherpesvirus 1 [16] = test: Antiviral activity against HSV-1 153 infected in African green monkey Vero cells assessed as reduction in virus induced cytopathogenicity by plaque reduction assay; assay type: functional, organism-based; conditions: Human alphaherpesvirus 1, 153, Vero
Human alphaherpesvirus 1 [17] = test: Antiviral activity against HSV-1 blue infected in African green monkey Vero cells assessed as reduction in virus induced cytopathogenicity by plaque reduction assay; assay type: functional, organism-based; conditions: Human alphaherpesvirus 1, blue
Human alphaherpesvirus 1 [18] = test: Antiviral activity against HSV-1 106 infected in African green monkey Vero cells assessed as reduction in virus induced cytopathogenicity by plaque reduction assay; assay type: functional, organism-based; conditions: Human alphaherpesvirus 1, 106, Vero
Human alphaherpesvirus 1 [19] = test: Antiviral activity against HSV-1 KOS infected in African green monkey Vero cells assessed as reduction in virus induced cytopathogenicity by plaque reduction assay; assay type: functional, organism-based; conditions: Human alphaherpesvirus 1, KOS
Influenza A virus = test: Antiviral activity against influenza A virus (H1N1/A/WSN/33) infected in MDCK cells assessed as inhibition of cytopathic effect incubated for 48 hrs by MTT assay; assay type: functional, organism-based; conditions: H1N1/A/WSN/33, MDCK
[20] = tested on: Human immunodeficiency virus 1; test: Antiviral activity against HIV1; assay type: functional, organism-based
SARS-CoV-2 [21] = test: microbe, parasite or virus in culture; conditions: Severe acute respiratory syndrome coronavirus 2, NRC-03-nhCoV, Vero C1008, 72 h
[22] = Cytotoxicity against African green monkey Vero E6 cells assessed as reduction in cell growth incubated for 24 hrs by WST-8 assay; assay type: toxicity, cell-based, Vero C1008; conditions: chlorocebus sabaeus
SARS-CoV-2 [23] = test: Antiviral activity against SARS-CoV-2 […] B.1.351 Beta infected in human 293TA cells assessed as reduction of viral growth measured after 48 hrs by luciferase assay; assay type: functional, organism-based; conditions: Severe acute respiratory syndrome coronavirus 2, […] B.1.351 Beta
Calu-3 = test: Cytotoxicity against human Calu-3 cells assessed as reduction in cell viability measured after 48 hrs by Hoechst 33342 staining based analysis; assay type: functional
SARS-CoV-2 [24] = test: Antiviral activity against SARS-CoV-2 B.1.1.7 infected in human Calu-3 cells assessed as inhibition of viral infection measured after 48 hrs by Hoechst 33342 staining based analysis; assay type: functional, organism-based; conditions: Severe acute respiratory syndrome coronavirus 2, B.1.1.7, Calu-3, 48 h
[25] = biological target: T1, Replicase polyprotein 1ab (Severe acute respiratory syndrome coronavirus 2, UniProt P0DTD1); test: Inhibition of SARS-CoV-2 3CL protease by FRET assay
SARS-CoV-2 [26] = test: Antiviral activity against SARS-CoV-2 RG2674 infected in African green monkey Vero cells assessed as reduction in virus-induced cytopathic effect incubated for 5 days by microscopic analysis; assay type: functional, organism-based; conditions: Severe acute respiratory syndrome coronavirus 2, RG2674, Vero, 120 h
[27] = biological target: T1, Replicase polyprotein 1ab; test: Inhibition of SARS-CoV-2 3CL protease

## CCCCCCCCCc1oc2c(O)ccc(-c3oc4cc(O)cc(O)c4c(=O)c3O[C@@H]3O[C@H](CO)[C@H](O)[C@H](O)[C@H]3O)c2c1C=O
[1]
  CC50 at 72 h: 166 µM
Human alphaherpesvirus 3
  EC50: 23.5 µM
Human alphaherpesvirus 1 [2]
  EC50: 23.5 µM
Human alphaherpesvirus 2
  EC50: 36.4 µM

## C=C(C)[C@@]12O[C@@]3(/C=C/C=C/C=C/CCC)O[C@@H]1[C@@H]1[C@@H]4O[C@]4(CO)[C@@H](O)[C@]4(O)C(=O)C(C)=C[C@H]4[C@@]1(O3)[C@H](C)[C@H]2OC(=O)/C=C/c1ccc(O)cc1
[3]
  EC50: > 0.034 µM

## C=C(C)[C@]1(O)C[C@@H](C)[C@@]2(O)[C@H]([C@H]1OC(=O)/C=C/C=C/CCCCC)[C@@H]1O[C@]1(CO)[C@@H](O)[C@]1(O)C(=O)C(C)=C[C@H]12
[4]
  EC50: 0.00381 µg/mL (≈ 0.00697 µM)
[5]
  EC50: 0.00872 µg/mL (≈ 0.016 µM)
[6]
  EC50: 0.0319 µg/mL (≈ 0.0584 µM)
[7]
  EC50: 0.0157 µg/mL (≈ 0.0286 µM)
[8]
  CC50 at 120 h: 65.6 µg/mL (≈ 120 µM)
[9]
  EC50: 0.0189 µg/mL (≈ 0.0345 µM)

## C=C1CC[C@]2(O)[C@H]1CC1=C(C)C(=O)OC1=C[C@]2(C)O
Human alphaherpesvirus 1 [10]
  Activity: 69.2%

## COc1ccc(C[C@@H](CO)[C@H](COC(C)=O)Cc2ccc(OC)c(OC)c2)cc1OC
[11]
  IC50: 12.2 µM
A549
  CC50: 11.6 µg/mL (≈ 26.8 µM)

## C=C(C)[C@]12C[C@@H](COC(C)=O)[C@@]3(OO1)[C@@H]1[C@H]2OCCCCCC[C@@H](C)[C@H]2[C@H](C)[C@H](OC(=O)c4ccccc4)[C@@](O)([C@H](O)[C@@]4(CO)O[C@@H]14)[C@@H]23
[12]
  EC90: 0.0004 µM
[13]
  IC50: 4.3 µM

## CC(C)CC(=O)O[C@H]1/C=C/C=C\C(=O)O[C@H]2[C@@H](C)C[C@@H]3[C@]2(O)[C@H](O)[C@@]2(CO)O[C@H]2[C@H]2[C@H]4OC5(c6ccccc6)O[C@@H]([C@@H](C)[C@@]23O5)[C@@]4(O)[C@](C)(O)C[C@H]2CC[C@H]1[C@H]2C
[14]
  EC50: 0.76 10^-3nmol
[15]
  CC50: 0.0222 µM

## COc1ccc(C[C@@H]2NC(=O)[C@@H]3CCCN3C(=O)[C@H](C(C)C)NC(=O)[C@@H](Cc3ccc(O)cc3)N(C)C(=O)[C@H](Cc3ccc(OC)cc3)NC2=O)cc1 (cyclo(PY(Me)Y(Me)[dNMeY]V))
Human alphaherpesvirus 1 [16]
  EC50: 8.28 µM
[1]
  CC50 at 72 h: 209 µM
Human alphaherpesvirus 1 [17]
  EC50: 7.9 µM
Human alphaherpesvirus 1 [18]
  EC50: 10.4 µM
Human alphaherpesvirus 1 [19]
  EC50: 7.9 µM

## C/C=C1\NC(=O)[C@@H](C)NC(=O)CNC(=O)[C@](C)(C(C)=O)NC(=O)[C@H](Cc2c[nH]c3cccc(OC)c23)NC(=O)c2csc(n2)[C@@H](C)NC(=O)CN(C)C1=O (cyclo([Dhb][Sar][dAla(ψthiazole)][Trp(4-OMe)][X1]G[dA]))
Influenza A virus
  EC50: 0.3 µM

## O=c1cc(-c2ccc(O)c(-c3c(O)cc(O)c4c(=O)cc(-c5ccc(O)cc5)oc34)c2)oc2cc(O)cc(O)c12 [AMENTOFLAVONE]
[20]
  EC50: 8.3 µM

## O=C(O)[C@H]1O[C@@H](Oc2cc3oc(-c4ccccc4)cc(=O)c3c(O)c2O)[C@H](O)[C@@H](O)[C@@H]1O [BAICALIN]
SARS-CoV-2 [21]
  EC50: 27.9 µM
[22]
  CC50 at 24 h: > 200 µM

## CC(C)=CCC/C(C)=C/COc1c2ccoc2cc2oc(=O)ccc12 [BERGAMOTTIN]
SARS-CoV-2 [23]
  IC50: 14.2 µM
Calu-3
  CC50: > 100 µM
SARS-CoV-2 [24]
  IC50: 8.15 µM
[25]
  IC50: 9.64 µM

## Nc1ncnc2c1ncn2[C@@H]1O[C@H](CO)C[C@H]1O [CORDYCEPIN]
SARS-CoV-2 [26]
  EC50: 2 µM

## COc1cc(O)c(C(=O)[C@@H]2[C@H](CC=C(C)C)C(C)=CC[C@H]2c2ccccc2)c(O)c1 [PANDURATIN A]
[27]
  IC50: 0.81 µM
[22]
  CC50 at 24 h: 14.7 µM
